Values of other authors as cited in patent US20190048020A1, “DEUTERIUM-MODIFIED CFTR MODULATORS” (VERTEX PHARMACEUTICALS (EUROPE) LIMITED, priority 2016, published 2019).

Target: T1, CFTR G5551D mutation (Homo sapiens, UniProt P13569, G551D)
T1 construct: phase II study in patients with the CFTR G5551D mutation; host or cells: patients (in vivo, sweat chloride read-out)
Conditions: phase II study, patients with the CFTR G5551D mutation

T1 sequence (P13569 whole entry G551D): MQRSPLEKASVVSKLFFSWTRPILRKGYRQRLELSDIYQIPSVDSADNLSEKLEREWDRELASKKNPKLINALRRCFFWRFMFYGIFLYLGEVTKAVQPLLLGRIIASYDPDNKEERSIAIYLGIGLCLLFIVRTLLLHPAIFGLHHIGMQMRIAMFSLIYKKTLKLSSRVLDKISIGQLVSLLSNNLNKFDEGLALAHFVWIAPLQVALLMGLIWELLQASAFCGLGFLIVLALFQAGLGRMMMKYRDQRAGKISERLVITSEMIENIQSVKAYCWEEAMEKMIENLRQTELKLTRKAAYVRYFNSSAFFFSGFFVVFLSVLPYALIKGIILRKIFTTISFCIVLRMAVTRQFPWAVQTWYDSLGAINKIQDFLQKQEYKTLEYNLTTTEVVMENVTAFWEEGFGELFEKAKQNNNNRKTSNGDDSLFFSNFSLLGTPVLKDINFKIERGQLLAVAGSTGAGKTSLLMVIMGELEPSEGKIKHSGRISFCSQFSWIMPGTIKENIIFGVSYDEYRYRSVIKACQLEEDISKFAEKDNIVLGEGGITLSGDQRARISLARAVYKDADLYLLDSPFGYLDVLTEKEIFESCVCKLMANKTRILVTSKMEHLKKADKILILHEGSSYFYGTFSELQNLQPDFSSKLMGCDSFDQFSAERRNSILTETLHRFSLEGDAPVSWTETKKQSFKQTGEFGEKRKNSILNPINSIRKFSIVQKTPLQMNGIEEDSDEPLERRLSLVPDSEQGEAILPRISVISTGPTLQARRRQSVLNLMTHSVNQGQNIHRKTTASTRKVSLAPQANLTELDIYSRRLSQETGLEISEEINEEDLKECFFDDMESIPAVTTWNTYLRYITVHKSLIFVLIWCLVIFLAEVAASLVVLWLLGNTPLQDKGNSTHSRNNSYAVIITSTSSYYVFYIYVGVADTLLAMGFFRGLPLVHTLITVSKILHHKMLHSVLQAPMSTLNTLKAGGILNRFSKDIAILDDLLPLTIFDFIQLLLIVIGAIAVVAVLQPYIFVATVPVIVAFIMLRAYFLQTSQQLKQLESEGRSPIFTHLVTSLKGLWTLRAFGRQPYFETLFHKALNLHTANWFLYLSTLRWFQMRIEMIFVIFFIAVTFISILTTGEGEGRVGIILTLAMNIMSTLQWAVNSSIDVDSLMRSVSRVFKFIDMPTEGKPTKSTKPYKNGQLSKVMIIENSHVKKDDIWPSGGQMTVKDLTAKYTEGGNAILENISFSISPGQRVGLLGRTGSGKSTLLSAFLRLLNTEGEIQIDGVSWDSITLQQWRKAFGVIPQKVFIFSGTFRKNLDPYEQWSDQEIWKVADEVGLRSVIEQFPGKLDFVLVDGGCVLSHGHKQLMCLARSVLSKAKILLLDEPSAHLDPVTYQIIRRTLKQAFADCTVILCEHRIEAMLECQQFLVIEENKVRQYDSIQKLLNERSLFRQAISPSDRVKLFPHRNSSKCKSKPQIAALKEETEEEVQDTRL

## CC1(C)Cc2c(sc(NC(=O)c3ccn[nH]3)c2C(N)=O)C(C)(C)O1 [GLPG1837]
  sweat chloride concentration: statistically significant dose-dependent decrease
